Assay results from US12145931B2, “Substituted pyrrolo[2,3-c]quinolines as antimalarials” (COUNCIL OF SCIENTIFIC AND INDUSTRIAL RESEARCH, priority 2018, dated 2024).

Tests used:
[1] = tested on: Plasmodium falciparum 3D7 strain; assay: Anti-malarial screen, parasite growth by SybrGreen staining; type: cell-based; details: 60 hours incubation, triplicates; for inhibition at 10 µM / EC50: Plasmodium falciparum, 3D7; for EC50: serial dilution from 10 μM to 1 nM
Protocol: Plasmodium falciparum 3D7 strain from Malaria Research and Reference Reagent Resource Center (ID NO: MRA-102). Plasmodium falciparum (3D7) is cultured in the laboratory as per standard protocols [AzarRadfar, Darío Méndez, Carlos Moneriz, María Linares, Patricia Marín-García, Antonio Puyet, AmaliaDiez & José M Bautista. Synchronous culture of Plasmodium falciparum at high parasitemia levels Nature Protocols 2009, 4, 1899-1915]. When the parasitemia (i.e., percent infection of human RBCs) reaches >15%, 1 mL of culture suspension is layered over 10 mL of 60% percoll (pH and osmolality adjusted using PBS) and centrifuged at 3000 rpm for 5 min using a swing out rotor. This separates late stage parasite (trophozoite and schizont) infected RBC (as a band on top of the percoll cushion) from early stage parasite (ring) infected and uninfected RBCs (as pellet at the bottom of the percoll cushion). The >90% enriched late stage parasite infected RBCs are collected, washed with complete RPMI media and added to a 2% hematocrit RBC suspension such that the final parasitemia is around 2%. The parasites grow in a synchronous manner for at least 2 rounds of asexual cycle (48 hours). This culture is then used for anti-malarial screening as given below.
200 μL of ring stage parasite culture at ˜2% parasitemia (see above) is added to each well in a 96 well plate pre-seeded with the compound of interest at the required concentration. 1 mM and 10 mM stocks dilutions of the compounds are prepared in cell culture grade DMSO, and the final concentration used in the assay is either 10 μM (for identifying molecules affecting parasite growth) or a serial dilution from 10 μM to 1 nM (for estimating the dose response and EC50 value). All compounds are plated in triplicates as biological replicates. Each 96 well plate also includes negative control (compound untreated & DMSO only treated culture) and positive control (standard anti-malarial compounds treated culture). […] After plating, the culture is incubated in standard growth condition for 60 hours, after which the cultures are processed for testing the effect of compounds on parasite growth as given below.
The inventors have standardized a SybrGreen dye based staining protocol for estimating parasite growth, which is a modification of previously published protocol [Plouffe et. al, 2008]. SybrGreen dye binds to DNA and only the DNA bound dye gives a specific fluorescence emission ([…]) when excited ([…]). Since only the parasites have DNA (as human RBCs are devoid of nucleus), the SybrGreensignal is a direct indictor of parasite growth. A standard fluorescent plate reader issued for assay read out, and the staining is done as follows. 25 μL of 10× stock containing of dye and Triton X100 (0.5%) is added to each of 200 μL culture growing in a 96 well plate and mixed well and incubated for 15 min-30 min before reading fluorescence emission using the plate reader at the appropriate wavelength.

[2] = 10 μM compound, ring stage culture ~2% parasitemia

CN(Cc1nc2ccccc2c2cc[nH]c12)c1ccccc1 [If, N-((3H-pyrrolo[2,3-c]quinolin-4-yl)methyl)-N-methyl aniline]
inhibition at 10 µM [1, 2]: 89.9% | EC50 [1]: 8.72 µM | melting point: 139 to 141 °C

CCN(CC)Cc1nc2ccccc2c2cc[nH]c12 [Ib, N-((3H-pyrrolo[2,3-c]quinolin-4-yl)methyl)-N-ethylethanamine]
inhibition at 10 µM [1, 2]: 97% | EC50 [1]: 8.58 µM

OCCN(CCO)Cc1nc2ccccc2c2cc[nH]c12 [Id]
inhibition at 10 µM [1, 2]: 91.5% | EC50 [1]: 4.48 µM

c1ccc2c(c1)nc(CN1CCOCC1)c1[nH]ccc12 [Ih, 4-((3H-pyrrolo[2,3-c]quinolin-4-yl)methyl)morpholine]
inhibition at 10 µM [1, 2]: 86.8% | EC50 [1]: 1.99 µM | melting point: 148 to 150 °C

CCN(CC)CCCC(C)N(C)Cc1nc2ccccc2c2cc[nH]c12 (stereo not drawn) [Im, N^4-((3H-pyrrolo [2,3-c]quinolin-4-yl)methyl)-N^1,N^1-diethyl-N^4-methylpentane-1,4-diamine]
inhibition at 10 µM [1, 2]: 98.5% | EC50 [1]: 0.17 µM

c1ccc(N(Cc2nc3ccccc3c3cc[nH]c23)Cc2nc3ccccc3c3cc[nH]c23)cc1 [Ij, N,N-bis((3H-pyrrolo[2,3-c]quinolin-4-yl)methyl)aniline]
inhibition at 10 µM [1, 2]: 84.1% | EC50 [1]: > 10 µM | melting point: 242 to 244 °C

O=S(=O)(c1ccccc1)n1ccc2c3ccccc3nc(CN3CCOCC3)c21 [Ig, 4-((3-(phenylsulfonyl)-3H-Pyrrolo[2,3-c]quinolin-4-yl)methyl)morpholine]
inhibition at 10 µM [1, 2]: 79.4% | EC50 [1]: 7.86 µM | melting point: 138 to 140 °C

O=c1c2ccccc2ncn1Cc1nc2ccccc2c2cc[nH]c12 [NCLite-M1, (3-((3H)-pyrrolo[2,3-c]quinoline-4-yl)methyl)quinazolin-4(3H)-one, reference compound]
Average % growth Inhibition [1, 2]: 9.18%

CCN(CC)Cc1nc2ccccc2c2ccn(S(=O)(=O)c3ccccc3)c12 [Ia, N-ethyl-N-((3-(phenylsulfonyl)-3H-pyrrolo [2,3-c]quinolin-4-yl)methyl)ethanamine]
inhibition at 10 µM [1, 2]: 99.7% | EC50 [1]: 0.27 µM

Cc1nc2ccccc2c2[nH]ccc12 [In, 4-methyl-1H-pyrrolo[3,2-c]quinoline]
inhibition at 10 µM [1, 2]: 99.1% | EC50 [1]: 3.7 µM

O=S(=O)(c1ccccc1)n1ccc2c3ccccc3nc(CN(CCO)CCO)c21 [Ic]
inhibition at 10 µM [1, 2]: 93.6% | EC50 [1]: > 10 µM | melting point: 98 to 99 °C

CN(Cc1nc2ccccc2c2ccn(S(=O)(=O)c3ccccc3)c12)c1ccccc1 [Ie, N-methyl-N-((3-(phenylsulfonyl)-3H-pyrrolo[2,3-c]quinolin-4-yl)methyl)aniline]
inhibition at 10 µM [1, 2]: 55.5% | EC50 [1]: > 10 µM | melting point: 146 to 148 °C

O=Cc1nc2ccccc2c2ccn(S(=O)(=O)c3ccccc3)c12 [Compound of formula 3, 3-(phenylsulfonyl)-3H-Pyrrolo[2,3-c]quinoline-4-carbaldehyde]
inhibition at 10 µM [1, 2]: 88.3% | EC50 [1]: > 10 µM

COc1ccc(N(C)Cc2nc3ccccc3c3cc[nH]c23)cc1 [Il, N-((3H-pyrrolo[2,3-c]quinolin-4-yl)methyl)-4-methoxy-N-methylaniline]
inhibition at 10 µM [1, 2]: 94.1% | EC50 [1]: 0.74 µM

COc1ccc(N(C)Cc2nc3ccccc3c3ccn(S(=O)(=O)c4ccccc4)c23)cc1 [Ik, 4-methoxy-N-methyl-N-((3-(phenylsulfonyl)-3H-pyrrolo[2,3-c]quinolin-4-yl)methyl)aniline]
inhibition at 10 µM [1, 2]: 90.2% | EC50 [1]: > 10 µM | melting point: 48 to 50 °C

O=S(=O)(c1ccccc1)n1ccc2c3ccccc3nc(CN(Cc3nc4ccccc4c4ccn(S(=O)(=O)c5ccccc5)c34)c3ccccc3)c21 [Ii, N,N-bis((3-(phenylsulfonyl)-3H-pyrrolo[2,3-c]quinolin-4-yl)methyl)aniline]
inhibition at 10 µM [1, 2]: 88.3% | EC50 [1]: > 10 µM | melting point: 188 to 190 °C
